The series is described as follows: in vitro. The following applies: human, hela cells, % viability.

As a reminder, the viability is a read-out of living cells in per cent, often relative to untreated cells.

Turning to `Nc1nonc1C(=O)NCCNS(=O)(=O)c1ccc(F)cc1` [CBK265980], the viability at 28.5 h, 10 µM was found to be 88.1%. The result for `O=C(O)CCc1ccc(-c2cccs2)n1CCc1ccccc1` [CBK265983] reads 113%; that for `COCCn1c(Cc2ccccc2)nnc1SCc1ccc2ccccc2c1` [CBK265985], 96.6%; that for `CCc1cccc(CC)c1NC(=O)CN(c1cccc(Br)c1)S(C)(=O)=O` [CBK265986], 84.9%. Take `C=CCN1CC2(c3ccccc3)CN(CC=C)CC(c3ccccc3)(C1)C2=O` [CBK265987]: the viability at 28.5 h, 10 µM came to 86.3%. The result for `Cc1ccc(S(=O)(=O)N(CC(=O)Nc2ccccc2-c2ccccc2)c2cccc(C)c2)cc1` [CBK265988] reads 98%; that for `CN1CCN(CCC(=O)Nc2ccc(Cl)c(C(F)(F)F)c2)CC1` [CBK265995], 89.9%. The result for `Cc1ccc(N(CC(=O)Nc2ccc(C)cc2C)S(=O)(=O)N2CCCC2)cc1` [CBK265998] reads 110%. The result for `CCOC(=O)c1c(NC(=O)CSc2nnc[nH]2)sc2c1CCCC2` [CBK265999] reads 93.1%; that for `COC(=O)c1ccccc1NC(=O)CNS(=O)(=O)c1ccc(C)cc1` [CBK266000], 94.7%; that for `COc1cccc(NC(=O)CCN2C(=O)c3ccccc3S2(=O)=O)c1` [CBK266003], 92.3%. For the molecule `CNc1cc(N2CCN(S(=O)(=O)c3ccc(C)cc3)CC2)ccc1[N+](=O)[O-]` [CBK266005], the viability at 28.5 h, 10 µM was 104%. For the molecule `O=C(O)COc1ccc(NC(=O)c2ccc3c(c2)C(=O)N(C2CCCCC2)C3=O)cc1` [CBK266009], the viability at 28.5 h, 10 µM turned out to be 92.1%. The result for `CCOC(=O)c1ccc(-n2c(CCC(=O)O)ccc2-c2ccc(F)cc2)cc1O` [CBK266010] reads 94.1%. To `CCOC(=O)c1cnc2c(C(F)(F)F)cccc2c1NCCCN1CCOCC1` [CBK266012] belongs 92.4%; to `CCN(CC)Cc1cc(C(C)(C)C)oc1C(=O)O` [CBK266013C], 110%; to `O=C(O)CCc1ccc(-c2cccs2)n1-c1ccc(C(=O)O)cc1` [CBK266016], 90.9%. To `COc1ccc(-c2ccc(CCC(=O)O)n2NC(N)=S)cc1` [CBK266018] belongs 102%. As to `Cc1cc(C)c(S(=O)(=O)Nc2ccc(S(=O)(=O)Nc3ccc(Cl)cc3Cl)cc2)c(C)c1` [CBK266022], the viability at 28.5 h, 10 µM was 109%. To `CC(C)c1ccc(OCCN2CCNCC2)cc1` [CBK266024C] belongs 96%; to `CN(C)S(=O)(=O)c1ccc(C(=O)Nc2cccc(N3Cc4ccccc4C3)c2)cc1` [CBK266025], 98.8%. To `Cc1cc(C)c(OCCCN2CCCCCC2)c(Cl)c1` [CBK266026G] belongs 101%.

With `c1ccc(Oc2cccc(OCCCCN3CCNCC3)c2)cc1` [CBK266027G], the viability at 28.5 h, 10 µM was 92.6%. The result for `COc1ccccc1NC(=O)COc1cccc(Cl)c1Cl` [CBK266029] reads 106%. To `O=C(COc1ccc(NS(=O)(=O)c2ccc3c(c2)Cc2ccccc2-3)cc1)N1CCOCC1` [CBK266030] belongs 101%; to `CCC(Oc1ccccc1)C(=O)Nc1ccccc1-c1ccccc1` (centres unmarked) [CBK266031], 108%; to `O=S(=O)(NCCOCc1ccccc1)c1ccc2c(c1)Cc1ccccc1-2` [CBK266032], 101%. To `COc1ccc(N2C(=O)C3C(CC(C)C)NC4(C(=O)N(CC(=O)Nc5ccc(C)cc5)c5ccccc54)C3C2=O)cc1` (centres unmarked) [CBK266034] belongs 95.9%; to `CC(C)(C)NC(=O)CSc1nnc(Cc2cccc3ccccc23)n1-c1ccccc1` [CBK266039], 118%. Take `N#Cc1cccc(CSc2nnc(Nc3ccccc3)n2-c2ccccc2)c1` [CBK266040]: the viability at 28.5 h, 10 µM was found to be 107%. The result for `Cc1c(Cl)cccc1NC(=O)CSc1nnc(Cc2cccc3ccccc23)n1-c1ccccc1` [CBK266042] reads 98.7%; that for `CNC(=O)CSc1nnc(COc2cccc3ccccc23)n1-c1ccccc1` [CBK266043], 102%.

For the molecule `Cc1ccc(SCCN2CCNCC2)cc1` [CBK266045G], the viability at 28.5 h, 10 µM is 99.6%. Take `Cc1ccccc1OCC(=O)Nc1c(C)n[nH]c1C` [CBK266046C]: the viability at 28.5 h, 10 µM is 106%. To `CCOc1ccc(NC(=O)C(C)Sc2nc3ccc(F)cc3[nH]2)cc1` (centres unmarked) [CBK266047] belongs 107%; to `Cc1ccc(S(N)(=O)=O)cc1NC(=O)c1ccc(S(=O)(=O)N(C)C)cc1` [CBK266050], 103%. The result for `COc1cc(C(c2c[nH]c3ccccc23)c2c[nH]c3ccccc23)c(Br)cc1OC(C)=O` [CBK266051] reads 107%; that for `C=CCn1c(SCC(=O)Nc2cccc(C(F)(F)F)c2)nnc1C12CC3CC(CC(C3)C1)C2` [CBK266054], 105%. As to `N/C(=N\OC(=O)CSc1ccccc1)c1ccccn1` [CBK266056], the viability at 28.5 h, 10 µM was found to be 105%. To `Cc1nn(C)c(C)c1NC(=O)c1ccc(S(=O)(=O)N(C)C)cc1` [CBK266059] belongs 93.8%; to `COc1ccc(NC(=O)CSc2nc3ccccc3n2-c2ccccc2)c([N+](=O)[O-])c1` [CBK266060], 91.8%. The result for `CCOc1cc(C(c2c[nH]c3ccccc23)c2c[nH]c3ccccc23)cc([N+](=O)[O-])c1O` [CBK266061] reads 101%. With `O=C(Nc1ccc(Br)c2cccnc12)c1ccc(COc2ccccc2)cc1` [CBK266062], the viability at 28.5 h, 10 µM is 94.2%. On to `Cc1ccc(OCc2cccc3nsnc23)cc1[N+](=O)[O-]` [CBK266063], for which the viability at 28.5 h, 10 µM is 98.2%. Regarding `O=S1(=O)N=C(N2CCN(Cc3ccc4c(c3)OCO4)CC2)c2ccccc21` [CBK266064], the viability at 28.5 h, 10 µM was found to be 104%.

Take `Cc1ccc(OCc2nnc(SCc3cccc(C#N)c3)n2Cc2ccccc2)cc1C` [CBK266065]: the viability at 28.5 h, 10 µM was 90.5%.

As for `c1ccc(SCCCN2CCNCC2)cc1` [CBK266067G], the viability at 28.5 h, 10 µM stood at 100%.

On to `CCC(C(=O)Nc1ccccc1C(=O)Nc1c(Cl)cccc1Cl)c1ccccc1` (centres unmarked) [CBK266068], for which the viability at 28.5 h, 10 µM worked out at 98.4%. The result for `C=CCN(CC=C)CCOc1c(C)cc(C)cc1Br` [CBK266070G] reads 110%. To `C=CCc1cccc(Cl)c1OCCN1CCNCC1` [CBK266071G] belongs 105%. The result for `Cc1ccc(NC(=O)CSc2nnc(C(O)c3ccccc3)n2-c2ccccc2)c(C)c1` (centres unmarked) [CBK266072] reads 106%; that for `COc1ccc(OC)c(NC(=O)CSc2nnc(-c3ccc(F)cc3)n2C)c1` [CBK266073], 92%.

Take `COc1cccc(-c2nnc(SCC(=O)Nc3cccc([N+](=O)[O-])c3)n2C)c1` [CBK266074]: the viability at 28.5 h, 10 µM worked out at 106%.

For the molecule `O=C(CSc1nnc(-c2ccccc2O)n1Cc1ccccc1)NC12CC3CC(CC(C3)C1)C2` [CBK266075], the viability at 28.5 h, 10 µM was 88.9%. The result for `O=c1c2ccccc2nc(SCc2cccc3nsnc23)n1-c1ccccc1` [CBK266076] reads 82.1%; that for `c1ccc(SCc2nc(-c3cccnc3)no2)cc1` [CBK266078], 101%; that for `Nn1c(SCC(=O)Nc2cccc3ccccc23)nnc1-c1ccccc1Cl` [CBK266080], 97.7%. To `O=C(C1=C(O)C(=O)N(CCCn2ccnc2)C1c1ccc(Br)cc1)c1ccc2c(c1)OCCO2` (centres unmarked) [CBK266081] belongs 104%; to `CC1(C)C2CCC1(CS(=O)(=O)N(Cc1ccccc1)Cc1ccccc1)C(=O)C2` (centres unmarked) [CBK266082], 107%. With `CC(C)(C)c1cc(-c2nc3ccccc3[nH]2)c(O)c(-c2nc3ccccc3[nH]2)c1` [CBK266084], the viability at 28.5 h, 10 µM came out at 90%.

Consider `Cc1ccc(OCC(=O)Nc2ccc(N3CCN(Cc4ccccc4)CC3)cc2)cc1C` [CBK266085], for which the viability at 28.5 h, 10 µM turned out to be 101%. To `Cc1cc(NC(=O)CSc2nc3c(c(C(F)(F)F)n2)CCc2ccccc2-3)n(-c2ccccc2)n1` [CBK266086] belongs 106%; to `N#CC1=C(N)Oc2[nH]nc(-c3cccs3)c2C1c1ccco1` (centres unmarked) [CBK266088], 99%; to `O=C(CSc1nc(-c2ccco2)cc(C(F)(F)F)n1)NCc1ccco1` [CBK266091], 95.1%. Regarding `CCOC(=O)COc1ccc2c(=O)c(Oc3ccc([N+](=O)[O-])cc3)c(C)oc2c1C` [CBK266092], the viability at 28.5 h, 10 µM amounted to 96.6%. The result for `Cc1ccc(-n2c3c(cc(C(=O)NCCCN4CCOCC4)c2=O)C(=O)CCC3)cc1` [CBK266094] reads 115%. The result for `CSCCc1[nH]c(SCC(=O)Nc2cccc3ccccc23)nc1C` [CBK266097] reads 91.3%; that for `COc1ccc(C(=O)NC(=S)Nc2ccc(N3CCN(C)CC3)cc2)cc1[N+](=O)[O-]` [CBK266098C], 89%; that for `CN1CCN(c2cc(N)nc(N)n2)CC1` [CBK266102], 107%.

For the molecule `O=C(COc1ccc2ccccc2c1)Nc1ccc(N2CCN(Cc3ccccc3)CC2)cc1` [CBK266104], the viability at 28.5 h, 10 µM was 98.3%.

On to `O=C(O)C1CC(O)CN1S(=O)(=O)c1ccc(Cl)cc1` (centres unmarked) [CBK266106], for which the viability at 28.5 h, 10 µM turned out to be 86.8%. The result for `CC1(C(=O)O)CC(C)(C(=O)O)CC(C)(C(=O)O)C1` (centres unmarked) [CBK266107] reads 91.8%; that for `CC(=O)c1cc2c(cc1NC(=O)CSc1nc3ccccc3[nH]1)OCO2` [CBK266110], 69.8%; that for `COC(=O)c1ccc(NC(=O)CSc2nnc(-c3ccc(C)cc3)n2N)cc1` [CBK266114], 89.9%. In the case of `COc1ccc(-c2cc(C(F)(F)F)nc(SCC(=O)NN3CCN(C)CC3)n2)cc1` [CBK266115], the viability at 28.5 h, 10 µM worked out at 96.5%. To `COc1cc(C(=O)Nc2ccc(N3CCN(C)CC3)cc2)ccc1OCc1ccc(Cl)cc1` [CBK266116] belongs 99%; to `CCOC(=O)C1CCN(CC(=O)Nc2ccc(S(N)(=O)=O)cc2)CC1` [CBK266118], 94%.
